How the values were obtained:
CTGF production = assay: Inhibition of TGF-induced CTGF production in NHDF (ELISA); type: cell-based; details: Homo sapiens, 10 ng/mL TGF-β, 48 h
Protocol: The effect of selected compounds on CTGF production was undertaken in normal human dermal fibroblast (NHDF) or human mesangial cells. Cells were cultured in DMEM (0.5% FBS) with or without 10 ng/mL of TGF-β for 48 h in a humidified atmosphere of 95% air-5% carbon dioxide at 37° C. CTGF measurement in the culture medium was measured using the CTGF ELISA according to the manufacturer (Prepotech) recommendations.

IL-12 production = IL-12 production in LPS-stimulated RAW264.7 cells (ELISA); type: cell-based; details: 100 ng/mL LPS, 21 h; for IL-12: compound 0.5 mM
Protocol: The effect of selected compounds on IL-12 production was undertaken in RAW264.7 (macrophage-like) cells. RAW264.7 cells were cultured with 100 ng/mL of LPS in presence or absence of compounds for 21 h in a humidified atmosphere of 95% air-5% carbon dioxide at 37° C. IL-12 concentration in the culture medium was measured using the IL-12 ELISA according to the manufacturer (BD Biosciences) recommendations. […] Compounds have no effect on IL-12 production in the absence of LPS.

P815 liver metastasis = P815 liver metastasis in mice; type: in vivo
Protocol: The syngeneic tumor P815 is a DBA/2 (H-2^d)-derived mastocytoma obtained from ATCC (TIB64). P815 cells were grown in DMEM containing 10% fetal bovine serum. At day 0, 50 μL of 5×10^5 viable P815 cells were subcutaneously injected to produce localized tumors in 6- to 8-week old DBA/2 mice. The animals were then serially monitored by manual palpation for evidence of tumor. […] Mice were sacrificed around day 23 (depending on the experiment). Serial tumor volume was obtained by bi-dimensional diameter measurements with calipers, using the formula 0.4 (a×b^2) where “a” was the major tumor diameter and “b” the minor perpendicular diameter. Tumors were palpable, in general, 3-5 days post-inoculation.
It is known that P815 cells have the capacity to metastasize to the liver.

P815 mastocytoma = assay: Primary P815 mastocytoma tumor growth in mice; type: in vivo
Text: The syngeneic tumor P815 is a DBA/2 (H-2^d)-derived mastocytoma obtained from ATCC (TIB64). […] Mice were sacrificed around day 23 (depending on the experiment). […] Tumors were palpable, in general, 3-5 days post-inoculation.

HK-2 cells = assay: TGF-β induced epithelial to mesenchymal transition in HK-2 cells (real-time PCR of E-cadherin, CTGF, collagen 1); type: cell-based, human
Protocol: (§1) FIG. 20 is a bar graph showing the effect of Compound XVII on E-cadherin in normal HK-2 cells and in TGF-β induced EMT cells. Real-time PCR using human E-cadherin TaqMan® Gene Expression Assay normalized to human GAPDH endogenous control; reference is TGF-δ-treated cells 24 h (RQ=1). *means p<0.05, and ** means p<0.01 (t-test).
as §1, with “FIG. 21” for “FIG. 20”, “on CTGF” for “on E-cadherin”, “human CTGH” for “human E-cadherin”, “is TGF-β-treated” for “is TGF-δ-treated”
FIG. 22 is a bar graph showing the effect of Compound XVII on collagen 1 in normal HK-2 cells and in TGF-β induced EMT cells. Real-time PCR using human Collagen 1 TaqMan® Gene Expression Assay normalized to human GAPDH endogenous control; reference is TGF-β-treated cells 24 h (RQ=1). ** means p<0.01 (t-test).
Real-time PCR using human CTGF TaqMan® Gene Expression Assay and Collagen 1 TaqMan® Gene Expression Assay normalized to human GAPDH endogenous control; reference is TGF-β-treated cells 24 h (RQ=1).
FIG. 24 is a bar graph showing the effect of Compound I on CTGF and collagen 1 expression in normal HK-2 cells and in TGF-β induced EMT cells. Real-time PCR using human CTGF TaqMan® Gene Expression Assay and Collagen 1α1 TaqMan® Gene Expression Assay normalized to human GAPDH endogenous control; reference is TGF-β-treated cells 24 h (RQ=1). Compound I is added at 0.5 mM.
Further analysis was undertaken to determine the effect of Compoounds on EMT. The effect of Compound XVII on TGF-β induced EMT was analyzed on human epithelial […] cells (HK-2). To assess the progression of EMT, the pro-epithelial marker E-cadherin and the mesenchymal/pro-fibrotic markers CTGF and collagen 1 were assayed by quantitative real-time PCR. To determine the efficacy of Compound XVII in inhibiting TGF-β-induced EMT, verification of the ability of TGF-β to induce EMT in HK-2 cells.

CT-26WT colon tumor = assay: Primary colon CT-26WT tumor in mice; type: in vivo; details: FIG. 12 and 13; for efficacy on primary tumor CT-26 (single agent): sodium decanoate oral 200 mg/kg daily, 5-fluorouracil i.p. 40 mg/kg day 6, 13, 20, Compound XV oral
Protocol: The syngeneic tumor CT-26WT (CT-26) is a colon tumor cell line obtained from ATCC (CRL-2638). CT-26 cells were grown in RPMI containing 10% fetal bovine serum. At day 0, 50 μL of 5×10^6 viable CT-26 cells were subcutaneously injected to produce localized tumors in 6- to 8-week old mice. The animals were then serially monitored by manual palpation for evidence of tumor. […] Mice were sacrificed at day 25. Serial tumor volume was obtained by bi-dimensional diameter measurements with calipers, using the formula 0.4 (a×b^2) where “a” was the major tumor diameter and “b” the minor perpendicular diameter. Tumors were palpable, in general, 3-5 days post-inoculation.

B16F10 melanoma cells = assay: Primary B16F10 melanoma tumor in mice; type: in vivo; details: C57BL/6 mice; sodium decanoate 100 mg/kg oral daily, doxorubicin 5 mg/kg (subtherapeutic dose); FIG. 3
Protocol: Female 6-8 week old C57BL/6 mice were injected subcutaneously on day 0 with 50 μL of 3.75×10^4 viable B16F10 melanoma cells from ATCC (source of cell culture, Dr. I. J. Fidler). On day 14, tumors reached […] and animals were randomized for treatment. […] Mice were sacrificed on day 12.

[1] = TGF-β-stimulated cells, 24 h, normalized to GAPDH, sodium decanoate and Compound I at 0.5 mM
[2] = compound alone, no TGF-β, sodium decanoate and Compound I at 0.5 mM

Q: Which melting point does the source give for `CCCCOc1ccc(C(CC(=O)[O-])c2cccc(F)c2)cc1.[Na+]` (centres unmarked) here?
A: 135 °C

Q: Which inhibition at 63 µM (CTGF production; 63 μM) does the source give for `CCCCCCCC(=O)c1ccc2c(c1)CC(C(=O)[O-])C2.[Na+]` (racemic) [Compound XIX, Sodium (RS)-5-octanoylindane-2-carboxylate] here?
A: 45%

Q: And the “IL-12 (pg/mL)” value (IL-12 production; compound 0.05 mM)?
A: 53 (at 0.05 mM) pg/mL

Q: With `CCCCCCCC(=O)c1cccc2c1CC(C(=O)[O-])C2.[Na+]` (racemic) [Compound XLI, Sodium (RS)-4-Octanoylindane-2-Carboxylate] as the compound, how does the “IL-12 (pg/mL)” value (IL-12 production; compound 0.1 mM) read?
A: 25 (at 0.1 mM) pg/mL

Q: Which “reduction of the number of mice with liver metastasis” value (P815 liver metastasis; 50 mg/kg, FIG. 18) does the source give for `CCCCCCCCC(Oc1ccc(C(=O)CCCCCCC)cc1)C(=O)[O-].[Na+]` (racemic) [Compound XVII, Sodium (RS)-2-[4-octanoylphenoxy]decanoate] here?
A: approximately 20%

Q: What about the P815 tumor growth (P815 mastocytoma; FIG. 17) of the same compound?
A: significant reduction (p<0.05)

Q: What about the “efficacy compared with soluble acetylsalicylic acid” value (P815 mastocytoma; FIG. 17) of the same compound?
A: better efficacy to the gold standard compound

Q: What about the inhibition at 7.5 µM (CTGF production; 7.5 μM) of the same compound?
A: 40%

Q: And the “TGF-β induced EMT” value (HK-2 cells; HK-2 cells, sodium decanoate and Compound I at 0.5 mM)?
A: significantly inhibited

Q: What about the E-cadherin transcript expression (HK-2 cells; TGF-β induced EMT cells, 24 h, normalized to GAPDH, FIG. 20) of the same compound?
A: upregulation

Q: And the CTGF transcript expression (HK-2 cells; [1])?
A: downregulation

Q: And the “collagen 1 transcript expression” value (HK-2 cells; [1])?
A: downregulation

Q: And the “basal expression of CTGF” value (HK-2 cells; [2])?
A: downregulate

Q: And the “basal expression of collagen 1” value (HK-2 cells; [2])?
A: downregulate

Q: And the “IL-12 (pg/mL)” value (IL-12 production; compound 0.05 mM)?
A: 209 (at 0.05 mM) pg/mL

Q: With `CCCCCCCC(=O)c1ccc(OC(CCCCCC)C(=O)[O-])cc1.[Na+]` (racemic) [Compound XXIV, Sodium (RS)-2-[4-Octanoylphenoxy]octanoate] as the compound, how does the melting point read?
A: 165 to 170 °C

Q: What about the “IL-12 (pg/mL)” value (IL-12 production; compound 0.02 mM) of the same compound?
A: 12 (at 0.02 mM) pg/mL

Q: For `CCCCCCCCC(Oc1ccc(C(=O)CCC)cc1)C(=O)[O-].[Na+]` (racemic) [Compound XXV, Sodium (RS)-2-[4-Butyrylphenoxy]decanoate], which melting point is on record?
A: 262 to 278 °C

Q: And the “IL-12 (pg/mL)” value (IL-12 production; compound 0.04 mM)?
A: 73 (at 0.04 mM) pg/mL

Q: Which results are given for `CCCCCCCCC(Oc1ccc(C(=O)CCCCC)cc1)C(=O)[O-].[Na+]` (racemic) [Compound XXVI, Sodium (RS)-2-[4-Hexanoylphenoxy]decanoate]?
A: melting point: 275 to 280 °C; IL-12 (pg/mL) (IL-12 production; compound 0.02 mM): 54 (at 0.02 mM) pg/mL

Q: Which “efficacy on primary tumor CT-26 (single agent)” value (CT-26WT colon tumor) does the source give for `O=c1[nH]cc(F)c(=O)[nH]1` [5-fluorouracil, reference compound] here?
A: weak efficacy

Q: Which results are given for `CCCCCc1cccc(CCC(=O)[O-])c1.[Na+]` [Compound II, Sodium salt of 3-(3-pentylphenyl)propionic acid]?
A: P815 tumor growth (P815 mastocytoma; oral 200 mg/kg, FIG. 7 and 8): significant reduction (p<0.05); inhibition at 100 µM (CTGF production; 100 μM): 38%; IL-12 (IL-12 production): 351 pg/mL

Q: With `CCCCc1cccc(CCC(=O)[O-])c1.[Na+]` [Compound III] as the compound, how does the inhibition at 500 µM (CTGF production) read?
A: 46%

Q: What about the “IL-12” value (IL-12 production) of the same compound?
A: 62 pg/mL

Q: Which results are given for `CCC/C=C/c1cccc(CC(=O)[O-])c1.[Na+]` [Compound IV, Sodium salt of E-(3-pent-1-enyl-phenyl)acetic acid]?
A: inhibition at 500 µM (CTGF production): 34%; IL-12 (IL-12 production): 19 pg/mL

Q: Which results are given for `CCCCCc1cc(CC(=O)[O-])ccc1O.[Na+]` [Compound IX, Sodium 2-[4-Hydroxy-3-pentylphenyl]acetate]?
A: melting point: 193 to 197 °C; IL-12 (IL-12 production): 20 pg/mL

Q: For `CCCCCc1cc(O)cc(CC(=O)[O-])c1.[Na+]` [Compound VIII, Sodium salt of [3-Hydroxy-5-pentylphenyl]acetic acid], which inhibition at 200 µM (CTGF production) is on record?
A: 47%

Q: And the “IL-12” value (IL-12 production)?
A: 17 pg/mL

Q: With `CCCC/C=C/c1cccc(CC(=O)[O-])c1.[Na+]` [Compound VI] as the compound, how does the “IL-12” value (IL-12 production) read?
A: 53 pg/mL

Q: Which inhibition at 500 µM (CTGF production) does the source give for `CCCCCc1ccc(C(=O)[O-])cc1.[Na+]` [Compound XI, Sodium salt of 4-pentylbenzoic acid] here?
A: 28%

Q: What about the “IL-12” value (IL-12 production) of the same compound?
A: 78 pg/mL

Q: With `CCCCCCc1cccc(C(=O)[O-])c1.[Na+]` [Compound XIII, Sodium salt of 3-hexylbenzoate] as the compound, how does the inhibition at 125 µM (CTGF production; 125 μM) read?
A: 29%

Q: What about the “IL-12 (pg/mL)” value (IL-12 production; compound 0.125 mM) of the same compound?
A: 18 (at 0.125 mM) pg/mL

Q: Which “reduction of mice with liver metastasis” value (P815 liver metastasis; oral 200 mg/kg, p<0.05, FIG. 9 and 10) does the source give for `O=C([O-])CCc1ccc(NCc2cccc(Oc3ccccc3)c2)cc1.[Na+]` [Compound XV, 3-(4-(3-phenoxy-benzylamino)phenyl) propionic acid] here?
A: 50%

Q: And the P815 tumor growth (P815 mastocytoma; oral 200 mg/kg, FIG. 7 and 8)?
A: significant reduction (p<0.05)

Q: And the inhibition at 20 µM (CTGF production; 20 μM)?
A: 22%

Q: And the “IL-12” value (IL-12 production)?
A: 37 pg/mL

Q: What about the “efficacy on primary tumor CT-26 (single agent)” value (CT-26WT colon tumor) of the same compound?
A: weak efficacy

Q: For `CCCCCCCC(=O)c1cccc(C(=O)[O-])c1.[Na+]` [Compound XVIII, Sodium 3-octanoylbenzoate], which inhibition at 200 µM (CTGF production) is on record?
A: 49%

Q: What about the “IL-12” value (IL-12 production) of the same compound?
A: 1099 pg/mL

Q: With `COc1cccc2c1C(=O)c1c(O)c3c(c(O)c1C2=O)C[C@@](O)(C(=O)CO)C[C@@H]3O[C@H]1C[C@H](N)[C@H](O)[C@H](C)O1` [doxorubicin, reference compound] as the compound, how does the “reduction of primary tumor volume compared to the control” value (B16F10 melanoma cells) read?
A: around 25%

Q: For sodium decanoate and 5-fluorouracil, which “tumor growth T/C” value (CT-26WT colon tumor; combination, from day 16 to day 26) is on record?
A: approximately 40%
